Measurements taken from US6452037B1, “Multioligonanilinated fullerenes” (priority 2001, dated 2002).

What was measured:
[1] = tested on: Fibrosarcoma cells (CCRC 60037); assay: In vitro irradiation-induced cytotoxicity, MTT cell viability, fibrosarcoma cells; format: cell-based; details: fluorescence light irradiation time 60 minutes
Experimental: (§1) Two types of tumor cells were used in this study, and prepared as follows: Fibrosarcoma cells (CCRC 60037) and sarcoma 180 cells (obtained form Biochemical Institute of Chung Shan Medical and Dental College, Taiwan) were maintained and cultured in an α-modified eagle medium (MEM) containing L-glutamine and phenol red. It was supplemented with 10% fetal bovine serum and antibiotics (100 units/mL of penicillin G and 100 μg/mL streptomycin sulfate). The cells were incubated in the dark in 95% humidified air plus 5% CO2, and harvested by treatment with trypsin-EDTA. The harvested cells were suspended in an α-MEM medium at the concentration of 1×10^4 cells per mL.
The cell suspension thus obtained was placed into wells of a 24-well plate (500 μL each) and pre-incubated at 37° C. for 24 hours. F10A16S solutions at various concentrations (0-10 μM) were then added to the wells (500 μL each). The wells were irradiated with fluorescence light (27 watts) for 0-60 minutes. The distance between the plate cover and the light source was set at 5-6 cm. After irradiation, the cells were further incubated for 48 hours. […] The absorbance at 540 nm was correlated with the quantity of formazon, and thus with the quantity of dehydrogenase enzyme or the relative number of living cells (i.e., viability). […]

[2] = tested on: Fibrosarcoma cells (CCRC 60037) and sarcoma 180 cells; assay: In vitro irradiation-induced cytotoxicity, MTT cell viability, tumor cells (cell type not specified for the result); format: cell-based
Experimental: as §1
The cell suspension thus obtained was placed into wells of a 24-well plate (500 μL each) and pre-incubated at 37° C. for 24 hours. F10A16S solutions at various concentrations (0-10 μM) were then added to the wells (500 μL each). The wells were irradiated with fluorescence light (27 watts) for 0-60 minutes. The distance between the plate cover and the light source was set at 5-6 cm. After irradiation, the cells were further incubated for 48 hours. A solution of 3-(4,5-dimethylthiazol-2-yl)-2,5-diphenyl-tetrazolium bromide (MTT, 100 μL, 0.5% in PBS, 100 μL each) was then added to each of the wells to react with mitochrondrial dehydrogenase in the living cells to produce formazon. Each cell suspension was again incubated at 37° C. for 3 hours. The suspension medium was then discarded. Formazon formed in cells from each well was then extracted with DMSO (1.0 mL each). The DMSO extract solution was immediately used for optical measurement. The absorbance at 540 nm was correlated with the quantity of formazon, and thus with the quantity of dehydrogenase enzyme or the relative number of living cells (i.e., viability). […] With an irradiation time of 60 minutes, a sharp loss of viable cells was observed when F10A16S concentration was increased from 2.5 to 5.0 μM. A maximal photodynamic cytotoxicity efficacy of >90% was obtained at an F10A16S concentration of 5.0-10.0 μM and an irradiaion time of 60 minutes.

[3] = tested on: Murine sarcoma 180 cells subcutaneous tumors; assay: In vivo photodynamic therapy study in tumor-bearing mice; parameters: species or system male ICR mice; details: 10 mg/kg intraperitoneal, 100 J/cm^2, day 30
Experimental: A photodynamic therapy study was conducted in male ICR mice (Charles River Japan origin Crl: CD-1® (ICR)BR). The mice were 8 weeks old, weighted 37±0.8 g, housed in polycarbonated shoe-box cages on hardwood bedding (5 mice/cage) under controlled conditions (temperature 22±1° C., relative humidity 55±15%, and light/dark cycle 12/12 hours), and allowed free access to a laboratory rodent diet (#5K55, Purina Mills, Inc., St. Louis, Mo.) and water.
Murine sarcoma 180 cells were maintained by transplantation to other mice in the abdominal cavity biweekly. Subcutaneous tumors were induced by […] injection of 1×10^7 tumor cells (about 0.1-0.15 ml ascitic fluid) to the subcutaneous region of abdominal cavities of the mice for this study, and were allowed to proliferate at the inoculation sites for 5-7 days until they reached a size with a diameter of 10±2 mm. […]
After the treatment, the mouse was examined every 5 days for 30 days. Efficacy of the irradiation therapy was evaluated by measuring the body weights and tumor volumes of the mouse. At day 30, the mice were euthanatized by carbon dioxide asphyxiation, and the weights of the body, liver, kidney, spleen, heart, and tumor, were measured. […]

ferricytochrome C = assay: In vitro irradiation-induced superoxide generation (ferricytochrome C reduction, absorbance at 550 nm); details: 25 μM F10A4S, fluorescence light 27 watts, irradiation time 0, 30, 60, 90 minutes
Experimental: The solution thus obtained was added to each well of a 24-well plate, and exposed to fluorescence light source (27 watts) for 0-90 min. The distance between the plate cover and the light source was set at 5-6 cm. The extent of reduction of ferricytochrome C to ferrocytochrome C was evaluated by optical measurement. The increase of the absorbance at 550 nm corresponded to the increase of the quantity of ferrocytochrome C.
In a separate experiment, the presence of superoxide radicals in the solution was confirmed by selective removal of superoxide radicals with superoxide dismutase (SOD, 75 or 150 units).

[4] = Water solubility noted for the isolated product; format: physicochemical
Experimental: 200 mg F12A16 and 15.0 mL DMF were added to a dry flask containing a stirring bar and a condenser under N2. To the DMF solution were either sequentially added 1.0 mL DBU, 0.5 mL 1,4-butane sultone, and stirred at 100° C. for 12.0 hours or sequentially added 70 mg sodium hydride −30° C., stirred for 30 minutes, added 0.5 mL 1,4-butane sultone, and stirred at 60° C. for 6.0 hours. It was then quenched with 100 mL dilute HCl-acetone solution to effect precipitation of a solid. The solid was collected after centrifugation, washed twice with acetonitrile, and dissolved in 15 mL DMSO-H2O (1:5) in the presence of 100 mg Na2CO3. The DMSO-H2O solution was slowly added to acetone, resulting in precipitation of the product F12A16S. The product, in blue, was collected after centrifugation, washed with DMF and acetone, and then dried under vacuum at 40° C. to yield 210-230 mg water-soluble F12A16S.
80 mg F10A4 in 20 mL DMSO, and 60 mg sodium hydride were added into a dry flask equipped with a stirring bar and a condenser at ambient temperature under N2. The solution thus obtained was stirred for 30 minutes, followed by addition of 0.2 mL 1,4-butane sultone. The reaction mixture was slowly heated to 70° C. and stirred for 12.0 hours, and was quenched with 100 mL dilute HCl-acetonitrile solution to effect precipitation. […]

solubility in water [4] | Substance | IC50 [1] | cell viability with irradiation ([2]; 0-10 μM, irradiation 0-60 minutes) | maximal photodynamic cytotoxicity efficacy ([2]; 5.0-10.0 μM, irradiation time 60 minutes) | cytotoxicity in the absence of light irradiation ([2]; no irradiation, highest concentration 10 μM) | tumor weight less than that of the tumor control group ([3]; laser irradiation at 514 nm) | tumor weight less than that of the tumor control group ([3]; laser irradiation at 633 nm) | production of superoxide radicals upon irradiation (ferricytochrome C)
– | deca(hexadecaanilino)adduct [F10A16S] | 2.9 µM | decrease in cell viability in both dose-dependent and irradiation time-dependent manners | > 90% | no cystoxicity was observed | roughly 60% | ~99% | –
water-soluble | sulfobutylated deca(tetraanilino)-pentakis(methano)-[60]fullerene decacarbamide [F10A4S] | – | – | – | – | – | – | increase systematically in a time-dependent manner
water-soluble | sulfobutylated fullerene dodeca(hexadecaanilino)adduct [F12A16S] | – | – | – | – | – | – | –
